Experimental data reported in EP0185961A2, “1-Phenyl-imidazole-5-carboxylic acid derivatives, process for their preparation and their use as growth regulators” (HOECHST AKTIENGESELLSCHAFT, priority 1984, dated 1986).

Legend:
Reispflanzen [1] = assay: Growth inhibition in paddy rice, small plots; conditions: Oryza sativa, 504 h, read-out: Wuchsshemmung (%)
Description: (§4) Reispflanzen werden in Kleinparzellen (2 m x 2 m) angezogen und im Stadium der maximalen Bestockung mit erfindungsgemäßen Verbindungen behandelt. Die Substanzen werden sowohl durch Spritzung appliziert als auch in das Wasser gegeben.
(§5) 3 Wochen nach der Behandlung wird bei allen Pflanzen der Zuwachs gemessen und die Wuchshemmung in % des Zuwachses der Kontrollpflanzen berechnet. Es wird außerdem auf eine mögliche phytotoxische Wirkung der Verbindungen geachtet.
(§6) Die Wuchshemmung wird als prozentualer Wert ermittelt, wobei 100% den Stillstand des Wachstums und 0% ein Wachstum entsprechend dem der unbehandelten Kontrollpflanzen bedeuten.

Weizen = assay: Growth inhibition in cereals, greenhouse tray test, sprayed at 3-leaf stage; assay type: in vivo; conditions: % of growth increment of untreated controls (100% = growth standstill), read-out: Wuchsshemmung in % bei Weizen; for pest or weed control at 1250 g/ha: 1,25 kg/ha; for pest or weed control at 2500 g/ha: 2,5 kg/ha
Description: (§1) In Schalenversuchen im Gewächshaus werden junge Getreidepflanzen (Weizen, Gerste, Roggen) im 3-Blattstadium mit erfindungsgemäßen Verbindungen in verschiedenen Wirkstoffkonzentrationen (kg/ha) tropfnaß gespritzt. […]

Roggen = assay: as above; assay type: in vivo; conditions: % of growth increment of untreated controls, read-out: Wuchsshemmung in % bei Roggen; for pest or weed control at 1250 g/ha: 1,25 kg/ha; for pest or weed control at 2500 g/ha: 2,5 kg/ha
Description: as §1

[2] = system: Getreidepflanzen (Weizen, Gerste, Roggen); assay: Phytotoxic effect observed in the cereal growth inhibition test; assay type: in vivo; conditions: cereals; one cell for 2,5 and 1,25 kg/ha
Description: (§2) In Schalenversuchen im Gewächshaus werden junge Getreidepflanzen (Weizen, Gerste, Roggen) im 3-Blattstadium mit erfindungsgemäßen Verbindungen in verschiedenen Wirkstoffkonzentrationen (kg/ha) tropfnaß gespritzt.
(§3) Es wird außerdem die phytotoxische Wirkung der Verbindung beobachtet.

Sojabohnen [3] = assay: Growth inhibition in soybeans; conditions: Glycine max, 504 h, read-out: Wuchsshemmung (%)
Description: (§7) Etwa 10 cm große Sojabohnen werden mit den Wirkstoffzubereitungen tropfnaß bespritzt. Nach 3 Wochen wird bonitiert.
as §6

Gerste = assay: Growth inhibition in cereals, greenhouse tray test, sprayed at 3-leaf stage; assay type: in vivo; conditions: % of growth increment of untreated controls, read-out: Wuchsshemmung in % bei Gerste; for pest or weed control at 1250 g/ha: 1,25 kg/ha; for pest or weed control at 2500 g/ha: 2,5 kg/ha
Description: as §2, §3

Reispflanzen [4] = conditions: in vivo
Description: as §4, §5, §6

Sojabohnen [5] = conditions: in vivo
Description: as §7, §6

Compound | pest or weed control at 620 g/ha (Reispflanzen [1]) [%] | pest or weed control at 1250 g/ha (Reispflanzen [1]) [%] | pest or weed control at 1250 g/ha (Weizen) [%] | pest or weed control at 2500 g/ha (Weizen) [%] | pest or weed control at 1250 g/ha (Roggen) [%] | pest or weed control at 2500 g/ha (Roggen) [%] | Phytotox. Wirkung [2] | pest or weed control at 2500 g/ha (Sojabohnen [3]) [%] | pest or weed control at 1250 g/ha (Gerste) [%] | pest or weed control at 2500 g/ha (Gerste) [%] | Phytotox. Wirkung (Reispflanzen [4]) | Phytotox. Wirkung (Sojabohnen [5])
CCc1cccc(CC)c1-n1cncc1C1=NC(C)(C)CO1 [Beispiel 6, 1-(2,6-Diethylphenyl)-5-(4,4-dimethyl-2-oxazolin-2-yl)-imidazol] | 11 | 18 | 8 | 17 | 9 | 17 | keine Schäden | 19 | 13 | 25 | keine Schäden | keine Schäden
CCc1cccc(CC)c1-n1cncc1-c1nc(C)no1 [Beispiel 7, 1-(2,6-Diethylphenyl)-5-(3-methyl-1,2,4-oxdiazol-5-yl)-imidazol] | 15 | 24 | 15 | 24 | 21 | 28 | keine Schäden | 26 | 19 | 39 | keine Schäden | keine Schäden
CCc1cccc(CC)c1-n1cncc1C(N)=NO [Beispiel 8, 1-(2,6-Diethylphenyl)-imidazol-5-carboxamidoxim] | 12 | 22 | 12 | 22 | 17 | 25 | keine Schäden | 21 | 18 | 34 | keine Schäden | keine Schäden
CCc1cccc(CC)c1-n1cncc1CO [Beispiel 12, 1-(2,6-Diethylphenyl)-5-hydroxymethyl-imidazol] | 13 | 21 | 11 | 23 | 17 | 24 | keine Schäden | 21 | 17 | 33 | keine Schäden | keine Schäden
CCc1cccc(CC)c1-n1cncc1C=O [Beispiel 13, 1-(2,6-Diethylphenyl)-5-formyl-imidazol] | 16 | 24 | 15 | 24 | 19 | 27 | keine Schäden | 25 | 19 | 37 | keine Schäden | keine Schäden
CCc1cccc(CC)c1-n1cncc1C(=O)OC1CCCCC1 [Beispiel 36] | 14 | 21 | 10 | 19 | 13 | 23 | keine Schäden | 19 | 17 | 33 | keine Schäden | keine Schäden
CCc1cccc(CC)c1-n1cncc1C(=O)ON=C(C)C [Beispiel 40] | 18 | 25 | 16 | 25 | 21 | 27 | keine Schäden | 26 | 19 | 38 | keine Schäden | keine Schäden
CCc1cccc(CC)c1-n1cncc1C(=O)ON=C(C)C(C)C [Beispiel 42] | 14 | 19 | 12 | 21 | 14 | 19 | keine Schäden | 19 | 16 | 31 | keine Schäden | keine Schäden
